The text below walks through data of US20220105096A1, “INHIBITORS OF HUMAN IMMUNODEFICIENCY VIRUS REPLICATION” (ViiV HEALTHCARE UK (NO.5) LIMITED, priority 2019, published 2022).

Data set [1] is described as follows: Metabolism in rat liver microsomes. The format is in vitro ADME. As to conditions: pH 7.4, 1 μM compound, 1 mg/mL microsomes, NADPH, 37° C., read-out: Rat liver microsome T1/2. The procedure: (§1) Liver microsomes from human, rat dog and monkey were thawed and diluted to a final concentration of 1 mg/mL in 100 mM potassium phosphate buffer (pH 7.4). Test compounds and controls were prepared at 100× final concentration of 1 μM in 1:1 acetonitrile:water (v/v) and aliquoted into microsomal mixture. The mixture was preincubated at 37° C. in a shaking water bath for 10 minutes. The incubations were performed in duplicate. Three controls were included in the incubations; warfarin, phenacetin, and verapamil. After the preincubation, the reaction was initiated with NADPH at a final concentration of 1 mM. At 0, 5, 15, 30, 45 and 60 minutes, 25 μL of sample was removed and quenched with 300 μL of acetonitrile containing internal standard (Telmisartan). The samples were vortexed for 5 minutes at 1200 rpm and then centrifuged at 4000 rpm for 10 min. A 100 μL aliquot of supernatant was diluted three-fold with water and injected on an Exion LC 4500 Triple Quad LC-MS/MS system. Results were reported as a percentage of parent remaining and was calculated from peak area ratios of test compound remaining after at each time point and compared to time zero incubation.
(Liver microsomes are a subcellular fraction often used to study metabolism.)

Data set [2] is described as follows: Metabolism in monkey liver microsomes. The format is in vitro ADME. The procedure:
as §1

Data set [3] in a line: Pharmacokinetic parameters in vivo, dog. On the set-up: species or system Beagle Dogs. How it is done:
PK was investigated in male CD1 mice, Wistar Han Rats, Cynomolgus monkeys, and Beagle Dogs. Two groups of animals (N=3 per group) received test compound either as an intravenous (IV) dose (1 mg/kg) or by oral gavage (5 mg/kg solution and suspension). Drug was formulated in 90% PEG 400, 10% ethanol for IV administration and in 90% PEG400, 5% ethanol for PO administration. Blood samples were collected at 0.167, 0.25, 0.5, 0.75, 1, 2, 3, 5, 7, 24, 48, 72 and 96 h post dose for IV; 0.25, 0.5, 0.75, 1, 2, 3, 5, 7, 24, 48, 72 and 96 h post dose for oral. Blood samples were collected into K3EDTA tubes and centrifuged at 1500 to 2000×g to obtain plasma. Plasma samples were stored at −20° C. until analysis by LC-MS/MS. All […] samples were injected on an Exion LC 4500 Triple Quad™ LC-MS/MS system. The analytical column used was a Phenomenex C18 (C18, 4.6 mm×50 mm, 5 μm) maintained at room temperature. Mobile Phase A consisted of 0.1% (v/v) formic acid in MilliQ water. Mobile Phase B consisted of 100% methanol. The flow rate was 1 mL/min. […] All LC-MS/MS analysis parameters are captured electronically in the raw data files. The PK parameters were obtained by non-compartmental analysis of plasma concentration vs time data (Phoenix WinNonlin v8). The peak concentration (Cmax) and time for Cmax (Tmax) were recorded directly from experimental observations. The area under the curve from time zero to the last sampling time [AUC0-T] and the area under the curve from time zero to infinity [AUCINF] were calculated using a combination of linear and log trapezoidal summations. The total plasma clearance (CLTp), steady-state volume of distribution (Vss), apparent elimination half-life (T-HALF), and mean residence time (MRT) were estimated after IV administration. Estimations of AUC and T-HALF were made using a minimum of three timepoints with quantifiable concentrations. The absolute oral bioavailability (F) was estimated as the ratio of dose-normalized AUC values following oral and IV doses.

The nature of data set [4]: Allometric scaling of pre-clinical PK parameters to predict dose in human. The procedure: Human dose predictions were performed using Phoenix WinNonlin (v 8.0) software and Microsoft Excel using the ModelRisk add-in for population modeling. Human IV parameters (Vc, Ka, K12, K21, KeI) were determined using Mean Residence Time (MRT) scaling from preclinical species (mouse, rat, dog and cyno). For this calculation, each animal of the relevant PK studies was modeled independently. Absorption (Ka) was determined by deconvolution (PO) or from the half-life (SC) in preclinical species (Ka=LN(2)/t1/2). The predicted human dose for PO and SC is calculated with consideration of human variability and is calculated to cover 95% of the human population.

Another data set deals with CYP2B6. Put plainly: Cytochrome P450 (CYP2B6) induction in cryopreserved human hepatocytes. As to conditions: hepatocytes from three individual donors, 0.12 to 30 μM, 48 hours. The format is cell-based. The procedure:
Following the guidance of the FDA (“In Vitro Metabolism- and Transporter-Mediated Drug-Drug Interaction Studies Guidance for Industry”), the potential of Example 1 and Example 60.2 to induce CYP2B6 expression was tested using hepatocytes from the same three individual donors (rather than pooled donors), and changes in enzyme mRNA levels were evaluated using the “fold-change method”. In this test a fold-change in mRNA levels less than 2-fold is considered a negative finding, while a change ≥2-fold is considered a positive finding.
Compounds were tested in a CYP induction assay using inducible cryopreserved human primary hepatocytes from three donors to determine the potential to cause induction (as measured by an increase in mRNA transcription) of CYP2B6. […] At the end of the incubation, the integrity of cell monolayers, cell density and viability were evaluated to assess cytotoxicity effects. […] It was then used in reverse transcription polymerase chain reactions (RT-PCR) to quantify the amount of specific mRNA species encoding human CYP3A4, CYP2B6, and CYP1A2 genes.
The induction potential of test compounds and controls was compared to known CYP2B6 inducer Phenobarbital (1000 μM). The results of this assay are expressed as fold induction. […] The cytotoxicity was also assessed in parallel to avoid false positive CYP induction results due to cytotoxicity. […]

Where [5] appears, read: Beagle, plasma, Dog, IV 1 mg/kg.

One may read the clearance as the rate of elimination divided by the concentration. For orientation: bioavailability means the share of a dose that reaches the circulation, judged against a reference dose that is usually intravenous. As for `Cn1nc(NS(C)(=O)=O)c2c(Cl)ccc(-n3c([C@H](Cc4cc(F)cc(F)c4)NC(=O)Cn4nc(C(F)F)c5c4C(F)(F)[C@@H]4C[C@H]54)nc4nc(OCCC(C)(F)F)ccc4c3=O)c21` (atropisomer, axis not shown; (P)) [Example 1, N—((S)-1-((3P)-3-(4-chloro-1-methyl-3-(methylsulfonamido)-1H-indazol-7-yl)-7-(3,3-difluorobutoxy)-4-oxo-3,4-dihydropyrido[2,3-d]pyrimidin-2-yl)-2-(3,5-difluorophenyl)ethyl)-2-((3bS,4aR)-3-(difluoromethyl)-5,5-difluoro-3b,4,4a,5-tetrahydro-1H-cyclopropa[3,4]cyclopenta[1,2-c]pyrazol-1-yl)acetamide], the half-life at 1 μM in data set [1] was > 2 h. The “stability in monkey liver microsomes relative to Example 60.2” value in data set [2] (Example 1 versus Example 60.2) is given as “at least two times more stable”. Moreover, in data set [2] (monkey, liver microsomes, pH 7.4, 1 μM compound, 1 mg/mL microsomes, NADPH, 37° C., read-out: Monkey liver microsome T1/2), the half-life at 1 μM was > 2 h. Besides, in data set [3] (setting [5]), the clearance is 1.16 mL/min/kg and the half-life is 12.4 h. Also, the Vd in data set [3] (Beagle, plasma, Dog, IV 1 mg/kg, read-out: Vss) was 0.88 L/kg. For the same compound, the bioavailability in data set [3] (Beagle, plasma, Dog, oral gavage 5 mg/kg solution vs IV 1 mg/kg) turned out to be 34.6%. Also, the “half-life in circulation higher than Example 60.2” value in data set [3] (dog) is “five-fold”. Besides, the “clearance improved relative to Example 60.2” value in data set [3] (dog, IV) is given as “seven-fold”. Further, the “predicted once-daily oral dose in human lower than for Example 60.2” value in data set [4] (Example 1 versus Example 60.2) is on record as 15 fold. Also, the “predicted Q1M SC dose in human lower than for Example 60.2” value in data set [4] (from SC rat apparent half-lives and predicted human clearance) was 20 fold. The “predicted human QD PO dose” value in data set [4] (once-daily oral dose to maintain efficacious plasma concentration, covers 95% of human population) is “less than 5 mg”. For the same compound, the “CYP2B6 induction finding (mRNA fold-change method)” value with CYP2B6 is “negative finding (a fold-change in mRNA levels less than 2-fold is considered a negative finding)”.
